Results from EPA's ToxValDB 9.5 (doi:10.2903/j.efsa.2011.2152).
Values after ≈ are worked out from the molar mass of the structure shown.

Experiments:
Bird = details: reproductive; mortality
Coturnix japonica = details: acute; oral; mortality
Cyprinus carpio = details: chronic/long-term; duration: 28 days
Daphnia magna = details: chronic/long-term; duration: 21 days
Oncorhynchus mykiss = details: acute; duration: 96 hours; mortality
Oryctolagus sp. = details: reproduction developmental; body weight
Tagia sp. = details: acute; duration: 14 days; mortality
Aphidius rhopalosiphi = test: LR50; higher = less toxic; details: not reported; mortality
Typhlodromus pyri = test: LR50; higher = less toxic; details: not reported; mortality

Compound: O=C(O)COc1ccc2ccccc2c1 [2-Naphthoxyacetic acid]
- NOEC (Bird): 10 mg/kg-day
- LD50 (Coturnix japonica): > 2000 mg/kg-day
- NOEC (Cyprinus carpio): 10 mg/L
- NOEC (Daphnia magna): 6.7 mg/L
- LC50 (Oncorhynchus mykiss): 2.39 µg/mL (≈ 11.8 µM)
- NOAEL (Oryctolagus sp.): 60 mg/kg-day
- LD50 (Rattus norvegicus; acute, oral, F, mortality): 1420 mg/kg-day
- NOAEL (Rattus norvegicus; developmental, development): 60 mg/kg-day
- NOAEL (Rattus norvegicus; reproduction developmental, mortality): 30 mg/kg-day
- NOAEL (Rattus norvegicus; subchronic, duration: 90 days, oral, organ weight): 10 mg/kg-day
- LC50 (Tagia sp.): 0.045 g/ha
- LR50 (Aphidius rhopalosiphi): > 100 g/ha
- LR50 (Typhlodromus pyri): > 80 g/ha
